In ChEMBL document CHEMBL1133062, “The synthesis and in vitro cytotoxic studies of novel bis-naphthalimidopropyl polyamine derivatives” (2000):

Legend:
Type in all cases: functional
SW-620 = experiment: The compound was tested for its cytotoxic activity against the following colon cancer cell lines SW-620; conditions: Homo sapiens
[1] = test system: Panel leukemia (Carcinoma cell lines); experiment: The compound was tested for its growth inhibitory activity against leukemia cell line; conditions: Homo sapiens
Melanoma cell = experiment: The compound was tested for its growth inhibitory activity against melanoma, human cancer cell line
Colon carcinoma cell = experiment: The compound was tested for its growth inhibitory activity against colon cancer cell line; conditions: Homo sapiens
EKVX = experiment: The compound was tested for its cytotoxic activity against the following non small cell lung cancer cell lines EKVX; conditions: Homo sapiens
SF-295 = experiment: The compound was tested for its cytotoxic activity against the following CNS cancer cell lines SF-295; conditions: Homo sapiens
IGROV-1 = experiment: The compound was tested for its cytotoxic activity against the following ovarian cancer cell lines IGROVI; conditions: Homo sapiens
NCI/ADR-RES = experiment: The compound was tested for its cytotoxic activity against the following breast cancer cell lines NCI / ADR-RES; conditions: Homo sapiens
Prostatic carcinoma cell = experiment: The compound was tested for its growth inhibitory activity against prostate cancer cell line; conditions: Homo sapiens
SF-268 = experiment: The compound was tested for its cytotoxic activity against the following CNS cancer cell lines SF-268; conditions: Homo sapiens
Lung cancer cell line = experiment: The compound was tested for its growth inhibitory activity against non small cell lung cancer cell line; conditions: Homo sapiens
786-0 = experiment: The compound was tested for its cytotoxic activity against the following renal cancer cell lines 786-0; conditions: Homo sapiens
NCI-H522 = experiment: The compound was tested for its cytotoxic activity against the following non small cell lung cancer cell lines NCI-H522; conditions: Homo sapiens
HL-60 = experiment: The compound was tested for its growth inhibitory activity against […] cancer cell line HL60-TB; conditions: Homo sapiens
K562 = experiment: The compound was tested for its cytotoxicity against the following leukemia cell line K-562; conditions: Homo sapiens
UO-31 = experiment: The compound was tested for its cytotoxic activity against the following renal cancer cell lines UO-31; conditions: Homo sapiens
Renal cancer cell line = experiment: The compound was tested for its growth inhibitory activity against renal cancer cell line; conditions: Homo sapiens
CNS carcinoma cell = experiment: The compound was tested for its growth inhibitory activity against CNS cancer cell line; conditions: Homo sapiens
Hs-578T = experiment: The compound was tested for its cytotoxic activity against the following breast cancer cell lines HS 578T; conditions: Homo sapiens
HCT-15 = experiment: The compound was tested for its cytotoxic activity against the following colon cancer cell lines HCT-15; conditions: Homo sapiens
SK-OV-3 = experiment: The compound was tested for its cytotoxic activity against the following ovarian cancer cell lines SK-OV-3; conditions: Homo sapiens
[2] = Mean value for over all cell lines tested
Ovarian carcinoma cell = experiment: The compound was tested for its growth inhibitory activity against ovarian cancer cell line; conditions: Homo sapiens
Breast carcinoma cell = experiment: The compound was tested for its growth inhibitory activity against breast cancer cell line; conditions: Homo sapiens

Work on `Br.Br.Br.O=C1c2cccc3cccc(c23)C(=O)N1CCCNCCCCNCCCNCCCN1C(=O)c2cccc3cccc(c23)C1=O` yielded a GI50 (SW-620) of 449 nM, a GI50 [1] of 250 nM and a GI50 (Melanoma cell) of 1170 nM. For the same compound, the GI50 (Colon carcinoma cell) was 2350 nM, the GI50 (EKVX) was 1050 nM and the GI50 (SF-295) was 4780 nM. The GI50 (IGROV-1) was 267 nM, the GI50 (NCI/ADR-RES) was 19500 nM and the GI50 (Prostatic carcinoma cell) was 460 nM. The GI50 (SF-268) was 111 nM, the GI50 (Lung cancer cell line) was 580 nM and the GI50 (786-0) was 185 nM. The GI50 (NCI-H522) was 30 nM, the GI50 (HL-60) was 156 nM and the GI50 (K562) was 1170 nM. The GI50 (UO-31) was 10600 nM, the GI50 (Renal cancer cell line) was 2490 nM and the GI50 (CNS carcinoma cell) was 1160 nM. The GI50 (Hs-578T) was 44 nM, the GI50 (HCT-15) was 10900 nM and the GI50 (SK-OV-3) was 1310 nM. It also gave a mean GI50 [2] of 1420 nM, a GI50 (Ovarian carcinoma cell) of 790 nM and a GI50 (Breast carcinoma cell) of 3490 nM.
`Br.Br.Br.Br.O=C1c2cccc3cccc(c23)C(=O)N1CCCNCCCNCCCCNCCCNCCCN1C(=O)c2cccc3cccc(c23)C1=O` showed a GI50 (SW-620) of 1160 nM, a GI50 [1] of 1430 nM and a GI50 (Melanoma cell) of 4040 nM. It also gave a GI50 (Colon carcinoma cell) of 4230 nM, a GI50 (EKVX) of 4500 nM and a GI50 (SF-295) of 5350 nM. The GI50 (IGROV-1) was 856 nM, the GI50 (NCI/ADR-RES) was 15100 nM and the GI50 (Prostatic carcinoma cell) was 3460 nM. For the same compound, the GI50 (SF-268) was 722 nM, the GI50 (Lung cancer cell line) was 3510 nM and the GI50 (786-0) was 555 nM. The GI50 (NCI-H522) was 825 nM, the GI50 (HL-60) was 33 nM and the GI50 (K562) was 3600 nM. The GI50 (UO-31) was 10800 nM, the GI50 (Renal cancer cell line) was 7430 nM and the GI50 (CNS carcinoma cell) was 4070 nM. For the same compound, the GI50 (Hs-578T) was 630 nM, the GI50 (HCT-15) was 12800 nM and the GI50 (SK-OV-3) was 10800 nM. It also gave a mean GI50 [2] of 4310 nM, a GI50 (Ovarian carcinoma cell) of 6120 nM and a GI50 (Breast carcinoma cell) of 4490 nM.
Work on `Br.Br.O=C1c2cccc3cccc(c23)C(=O)N1CCCNCCCCNCCCN1C(=O)c2cccc3cccc(c23)C1=O` yielded a GI50 (SW-620) of 37 nM, a GI50 [1] of 80 nM and a GI50 (Melanoma cell) of 440 nM. For the same compound, the GI50 (Colon carcinoma cell) was 590 nM, the GI50 (EKVX) was 1370 nM and the GI50 (SF-295) was 488 nM. For the same compound, the GI50 (IGROV-1) was 82 nM, the GI50 (NCI/ADR-RES) was 13100 nM and the GI50 (Prostatic carcinoma cell) was 130 nM. The GI50 (SF-268) was 29 nM, the GI50 (Lung cancer cell line) was 530 nM and the GI50 (786-0) was 24 nM. The GI50 (NCI-H522) was 13 nM, the GI50 (HL-60) was 222 nM and the GI50 (K562) was 12 nM. The GI50 (UO-31) was 1910 nM, the GI50 (Renal cancer cell line) was 570 nM and the GI50 (CNS carcinoma cell) was 290 nM. The GI50 (Hs-578T) was 65 nM, the GI50 (HCT-15) was 2660 nM and the GI50 (SK-OV-3) was 722 nM. It also gave a mean GI50 [2] of 580 nM, a GI50 (Ovarian carcinoma cell) of 340 nM and a GI50 (Breast carcinoma cell) of 2260 nM.
With `Br.Br.O=C1c2cccc3cccc(c23)C(=O)N1CCCNOCCONCCCN1C(=O)c2cccc3cccc(c23)C1=O` the GI50 [1] was 25700 nM, the GI50 (Melanoma cell) was 78000 nM and the GI50 (Colon carcinoma cell) was 73200 nM. The GI50 (Prostatic carcinoma cell) was 77600 nM, the GI50 (Lung cancer cell line) was 72600 nM and the GI50 (Renal cancer cell line) was 65400 nM. For the same compound, the GI50 (CNS carcinoma cell) was 65900 nM, the mean GI50 [2] was 68600 nM and the GI50 (Ovarian carcinoma cell) was 81000 nM. For the same compound, the GI50 (Breast carcinoma cell) was 77600 nM.
